Data set [1] can be described thus: Activity of ATV014 compared to GS-441524. The text has this: (§1) The compound ATV014 is a derivative of GS-441524.
A short description of data set [2]: Bioavailability of ATV014 compared to GS-441524.
From the text: as §1

A further data set in a line: DVS hygroscopicity test. Format: physicochemical.
Data set [3] is described as follows: Moisture absorption on placement under RH (open) conditions for one week. The conditions noted are these: for moisture absorption: one week. Format: physicochemical. The text has this:
• (1) The compound ATV-014 hydrobromate crystalline form I provided herein is placed under 70% RH (open) conditions for one week, the moisture absorption is 0.2%, and under 90% RH (open) conditions for one week, the moisture absorption is 18.8%. • (2) The compound ATV-014 p-toluenesulfonate crystalline form I provided herein is placed under 30% RH (open) conditions for one week, the moisture absorption is 0.4%, and under 90% RH (open) conditions for one week, the moisture absorption is 0.5%.

A short description of data set [4]: Solubility study in biological media (FaSSIF, FeSSIF, SGF, water) at 37° C. Format: physicochemical. Particulars: for solubility at 0.5 h / solubility at 2 h / solubility at 24 h: thermodynamic from solid. As for the experimental part:
According to the results of salt formation screening research, the solubilities of free base crystalline form I and p-toluenesulfonate crystalline form I at 0.5 hours, 2 hours, and 24 hours were measured in FaSSIF, FeSSIF, SGF, and water at 37° C.

Data set [5] in a line: Study on the stability of influence factors (40° C./75% RH open, 60° C. sealed, 7 days; HPLC and XRPD). The format is physicochemical. The conditions noted are these: for Purity at day 7 (Peak area %) 40° C./75% RH: 40° C./75% RH (open); for Purity at day 7 (Peak area %) 40° C./75% RH / Purity at day 7 (Peak area %) 60° C.: 7 days, HPLC; for Purity at day 7 (Peak area %) 60° C.: 60° C. (sealed sample bottle); for physical and chemical stability / purity and crystalline structure: 60° C. and 40° C./75% RH for 7 days; for Purity at day 0 (Peak area %): day 0, HPLC. The text has this: X-ray powder diffraction patterns were collected by using a zero-background sample disk on a German Bruker D8 Advance X-ray diffractometer equipped with an automatic sampler. The used radiation source is Cu k α (λ=1.5418 Å), and the light tube voltage is set at 40 KV and the light tube current is set at 40 mA. The divergent slit of X-rays is 0.6 mm. A proper amount of sample was placed in the center of the zero-background sample tray under the environmental condition, the sample was lightly pressed with a clean glass slide to obtain a flat plane, and the zero-background sample rack was fixed. Diffraction analysis of the sample was performed with a scanning step size of 0.02° (2θ) in the range of 3-40° (2θ). The software used for data collection is DIFFRAC.COMMANDER, and the data is analyzed and presented using DIFFRAC.EVA.
The instrument used for liquid chromatography analysis is Agilent HPLC 1260 series,
ATV-014 free base crystalline form I, ATV-014 hydrobromate crystalline form I, and ATV-014 p-toluenesulfonate crystalline form I were taken and placed at 40° C./75% RH (open) and 60° C. (sealed sample bottle) for 7 days. High-performance liquid chromatography and X-ray powder diffraction detection were performed at 0 and 7 days, respectively.

The nature of data set [6]: Placement under 40° C./75% RH (open) conditions for one week (hydrochloride). The format is physicochemical.
For data set [7] the following is noted: in vivo in mice, compared with Remdesivir; cited from earlier work.
The conditions of data set [8]: compared with Remdesivir; cited from earlier work.
Where [9] appears, read: after placement under 30% RH and 90% RH (open) for one week.

Results on six molecules are retold here after patent US20240366617A1, “NOVEL CRYSTALLINE FORMS OF A NUCLEOSIDE COMPOUND AND SALTS THEREOF” (priority 2021, published 2024).

≈ marks a conversion by molar mass, not a printed value. Where two headings read alike, the source gives them in different places.

Regarding `N#C[C@@]1(c2ccc3c(N)ncnn23)O[C@H](COC(=O)C2CCCCC2)[C@@H](O)[C@H]1O` [ATV014], in [1], the activity entry is reported as “better”. Moreover, the bioavailability entry in [2] is reported as “better”.
For `Cc1ccc(S(=O)(=O)O)cc1.N#C[C@@]1(c2ccc3c(N)ncnn23)O[C@H](COC(=O)C2CCCCC2)[C@@H](O)[C@H]1O.O`, the “hygroscopicity (DVS results)” value in the data set “DVS hygroscopicity test” is listed as “slight hygroscopicity”. Also, the “solid form during / after the DVS test” value in “DVS hygroscopicity test” is listed as “no change in the crystalline structure”. Moreover, the hygroscopic weight gain in “DVS hygroscopicity test” (90% RH) was 0.5%. Moreover, the moisture absorption is on record as 0.4% in data set [3] (30% RH (open)) and 0.5% in data set [3] (90% RH (open)). Besides, the “crystalline structure and chemical purity” value in data set [3] (setting [9]) is given as “have not changed”. Besides, the “physical and chemical stability” value in [3] (setting [9]) and in [5] was “good” throughout. The “solubility” value was “higher than 5 mg/mL” in data set [4] and above 5000 µg/mL in data set [4] (pH 1.24). Moreover, in data set [4], the “solubility in water relative to that of free base” value is 30 times. In addition, the “pH (solution pH)” value in data set [4] (FaSSIF, pH 6.45, 0.5 h) amounted to 5.7; in data set [4] (FaSSIF, pH 6.45, 2 h) it was 5.67; in data set [4] (FaSSIF, pH 6.45, 24 h), 5.85; in data set [4] (FeSSIF, pH 4.95, 0.5 h) it was 4.65; in data set [4] (FeSSIF, pH 4.95, 2 h), 4.62; in data set [4] (FeSSIF, pH 4.95, 24 h) it was 4.83. For the same molecule, the “pH (solution pH)” value in data set [4] (SGF, pH 1.24, 0.5 h) came out at 0.69; in data set [4] (SGF, pH 1.24, 2 h), 0.70; in data set [4] (SGF, pH 1.24, 24 h) it was 1.20; in data set [4] (water, pH 5.53, 0.5 h) it was 2.05; in data set [4] (water, pH 5.53, 2 h), 2.07; in data set [4] (water, pH 5.53, 24 h) it was 2.43. In addition, the “XPRD (solid form of the residue)” value in data set [4] (pH 4.95), in data set [4] (pH 5.53) and in data set [4] (pH 6.45) was “free base” throughout. Besides, in [5], the “Purity at day 7 (Peak area %) 40° C./75% RH” value is listed as 98.71%. The “Purity at day 7 (Peak area %) 60° C.” value in data set [5] came to 98.62%. Further, the “purity and crystalline structure” value in [5] is listed as “remained unchanged”. Moreover, in data set [5], the “Purity at day 0 (Peak area %)” value is reported as 98.60%.
Regarding `N#C[C@@]1(c2ccc3c(N)ncnn23)O[C@H](COC(=O)C2CCCCC2)[C@@H](O)[C@H]1O` [ATV-014 free base crystalline form I], the “pH (solution pH)” value in data set [4] (FaSSIF, pH 6.45, 0.5 h) is on record as 6.45; in data set [4] (FaSSIF, pH 6.45, 2 h), 6.44; in [4] (FaSSIF, pH 6.45, 24 h), 6.58; in [4] (FeSSIF, pH 4.95, 0.5 h), 4.76; in [4] (FeSSIF, pH 4.95, 2 h), 4.74; in [4] (FeSSIF, pH 4.95, 24 h), 4.96. Moreover, the “pH (solution pH)” value in data set [4] (SGF, pH 1.24, 0.5 h) is 0.95; in data set [4] (SGF, pH 1.24, 2 h), 0.9; in data set [4] (SGF, pH 1.24, 24 h), 1.26; in data set [4] (water, pH 5.53, 0.5 h), 7.24; in data set [4] (water, pH 5.53, 2 h), 6.45; in data set [4] (water, pH 5.53, 24 h) it was 6.5. Besides, the “solubility” value in data set [4] (SGF, 37° C., 0.5-24 h, medium not named in the sentence for the p-toluenesulfonate) lay in the range of 2500 to 2900 µg/mL. Besides, the solubility at 0.5 h in [4] (simulated gastric fluid, SGF, pH 1.24, 0.5 h, 37° C.) was 2480 µg/mL (≈ 6180 µM); in [4] (FaSSIF, pH 6.45, 0.5 h, 37° C.), 7 µg/mL (≈ 17.4 µM); in data set [4] (FeSSIF, pH 4.95, 0.5 h, 37° C.) it was 14 µg/mL (≈ 34.9 µM); in [4] (water, pH 5.53, 0.5 h, 37° C.), 5 µg/mL (≈ 12.5 µM). For the same molecule, the solubility at 2 h in [4] (simulated gastric fluid, SGF, pH 1.24, 2 h, 37° C.) was 2560 µg/mL (≈ 6380 µM); in data set [4] (FaSSIF, pH 6.45, 2 h, 37° C.) it was 10 µg/mL (≈ 24.9 µM); in data set [4] (FeSSIF, pH 4.95, 2 h, 37° C.), 19 µg/mL (≈ 47.3 µM); in data set [4] (water, pH 5.53, 2 h, 37° C.), 6 µg/mL (≈ 14.9 µM). In addition, the solubility at 24 h is 2860 µg/mL (≈ 7120 µM) in data set [4] (simulated gastric fluid, SGF, pH 1.24, 24 h, 37° C.); 21 µg/mL (≈ 52.3 µM) in data set [4] (FaSSIF, pH 6.45, 24 h, 37° C.); 20 µg/mL (≈ 49.8 µM) in data set [4] (FeSSIF, pH 4.95, 24 h, 37° C.); 5 µg/mL (≈ 12.5 µM) in data set [4] (water, pH 5.53, 24 h, 37° C.). The “Purity at day 7 (Peak area %) 40° C./75% RH” value in data set [5] is recorded as 98.09%. The “Purity at day 7 (Peak area %) 60° C.” value in data set [5] was found to be 98.10%. In addition, the “physical and chemical stability” value in data set [5] is given as “good”. Moreover, the “purity and crystalline structure” value in [5] is recorded as “remained unchanged”. In addition, the “Purity at day 0 (Peak area %)” value in data set [5] amounted to 98.12%.
For the molecule `Cl.N#C[C@@]1(c2ccc3c(N)ncnn23)O[C@H](COC(=O)C2CCCCC2)[C@@H](O)[C@H]1O` [ATV-014 hydrochloride crystalline form], in data set [6], the “crystalline structure and chemical purity” value was “have not changed”; the “physical and chemical stability” value is given as “good”.
As for `Br.N#C[C@@]1(c2ccc3c(N)ncnn23)O[C@H](COC(=O)C2CCCCC2)[C@@H](O)[C@H]1O` [ATV-014 hydrobromide crystalline form I], in the data set “DVS hygroscopicity test”, the “hygroscopicity (DVS results)” value is recorded as “has hygroscopicity” and the “solid form during / after the DVS test” value is recorded as “transforms into an amorphous glassy solid”. The hygroscopic weight gain in the data set “DVS hygroscopicity test” (70% RH, after equilibrating for 30 to 120 minutes) stood at 0.2%. The hygroscopic weight gain in “DVS hygroscopicity test” (90% RH) was determined as 18.8%. The moisture absorption in data set [3] (70% RH (open)) worked out at 0.2%. The same molecule yielded a moisture absorption in [3] (90% RH (open)) of 18.8%. Moreover, in data set [5], the “Purity at day 7 (Peak area %) 40° C./75% RH” value is given as “Liquefaction,”, the “Purity at day 7 (Peak area %) 60° C.” value stood at 99.57% and the “Purity at day 0 (Peak area %)” value came out at 99.46%. The “state of the sample” value in data set [5] (40° C./75% RH for 7 days) is listed as “the sample liquefies”. The “purity and crystalline form” value in data set [5] (60° C. for 7 days) is “remained unchanged”.
Take `N#C[C@@]1(c2ccc3c(N)ncnn23)O[C@H](CO)[C@@H](O)[C@H]1O` [GS-441524]: the antiviral effect entry in data set [7] is on record as “superior to that of Remdesivir”. For the same molecule, the safety result in data set [8] is given as “better safety”.

Broadly, the solubility is how much of the substance goes into solution per volume. Low values mean little dissolved substance, high ones much dissolved substance.
